For the assay, the target named is 5-hydroxytryptamine receptor 2A (Homo sapiens, UniProt P28223). As to the kind of experiment: Ability to displace [3H]ketanserin from CHO cells expressing human 5-hydroxytryptamine 2A receptor was determined. It is filed as cell-based.
5-hydroxytryptamine receptor 2A, sequence (P28223 whole entry): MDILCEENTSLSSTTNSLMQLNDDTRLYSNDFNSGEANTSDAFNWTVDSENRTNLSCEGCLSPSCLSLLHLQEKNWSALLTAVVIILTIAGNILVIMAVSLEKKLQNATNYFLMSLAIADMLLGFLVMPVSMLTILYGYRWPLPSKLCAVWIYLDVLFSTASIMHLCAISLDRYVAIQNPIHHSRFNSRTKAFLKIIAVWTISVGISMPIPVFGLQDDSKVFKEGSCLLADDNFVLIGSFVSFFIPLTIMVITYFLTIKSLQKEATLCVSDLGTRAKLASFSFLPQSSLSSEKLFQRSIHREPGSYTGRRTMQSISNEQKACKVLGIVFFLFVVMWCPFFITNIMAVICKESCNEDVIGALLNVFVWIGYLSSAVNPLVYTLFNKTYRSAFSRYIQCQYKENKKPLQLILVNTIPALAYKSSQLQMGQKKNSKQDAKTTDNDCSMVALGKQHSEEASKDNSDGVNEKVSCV

A word on the Ki: it is the dissociation constant of the complex between target and ligand, obtained from inhibition or displacement. A high value points to weaker binding. `c1ccc(-c2[nH]c3ccccc3c2CCN2CCCCC2)cc1` gave a Ki of 2.7 nM.

Values taken from ChEMBL document CHEMBL1132835, “Solid-phase synthesis of 2,3-disubstituted indoles: discovery of a novel, high-affinity, selective h5-HT2A antagonist” (Bioorg Med Chem Lett, 2000).
